Measured values from PMC8617627, “Novel DYRK1A Inhibitor Rescues Learning and Memory Deficits in a Mouse Model of Down Syndrome” (Pharmaceuticals, 2021).
Like-named read-outs stand apart in the source and are kept apart here.

Assays:
Test in all cases: Kinase profile (33P ATP filter binding)
Type in all cases: biochemical
DAPK1 = DAPK1 (Homo sapiens, UniProt P53355); details: read-out: Remaining protein kinase activity
NUAK1 = molecular target: T1, NUAK1 (Homo sapiens, UniProt O60285)
T1 sequence (O60285 1-661): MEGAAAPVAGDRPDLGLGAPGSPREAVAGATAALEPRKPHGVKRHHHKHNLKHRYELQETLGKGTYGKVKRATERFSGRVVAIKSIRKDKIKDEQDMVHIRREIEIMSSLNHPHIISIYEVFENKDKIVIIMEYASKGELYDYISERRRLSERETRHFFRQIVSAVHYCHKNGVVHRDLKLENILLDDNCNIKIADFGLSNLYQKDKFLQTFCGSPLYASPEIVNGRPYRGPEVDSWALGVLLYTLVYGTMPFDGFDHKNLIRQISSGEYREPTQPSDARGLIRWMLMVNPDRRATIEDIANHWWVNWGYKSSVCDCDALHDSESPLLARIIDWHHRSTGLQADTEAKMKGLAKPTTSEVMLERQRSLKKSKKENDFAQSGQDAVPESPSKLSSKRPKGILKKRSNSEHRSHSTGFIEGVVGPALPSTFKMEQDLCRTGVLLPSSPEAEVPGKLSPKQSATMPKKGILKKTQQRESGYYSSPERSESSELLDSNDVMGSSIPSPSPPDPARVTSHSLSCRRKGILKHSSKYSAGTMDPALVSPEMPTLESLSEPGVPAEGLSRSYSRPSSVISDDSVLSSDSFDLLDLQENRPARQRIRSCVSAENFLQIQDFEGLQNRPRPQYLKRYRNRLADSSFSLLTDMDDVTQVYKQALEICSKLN

PKD1 = molecular target: T2, PKD1 (Homo sapiens, UniProt Q15139); details: read-out: Remaining protein kinase activity
T2 sequence (Q15139 1-912): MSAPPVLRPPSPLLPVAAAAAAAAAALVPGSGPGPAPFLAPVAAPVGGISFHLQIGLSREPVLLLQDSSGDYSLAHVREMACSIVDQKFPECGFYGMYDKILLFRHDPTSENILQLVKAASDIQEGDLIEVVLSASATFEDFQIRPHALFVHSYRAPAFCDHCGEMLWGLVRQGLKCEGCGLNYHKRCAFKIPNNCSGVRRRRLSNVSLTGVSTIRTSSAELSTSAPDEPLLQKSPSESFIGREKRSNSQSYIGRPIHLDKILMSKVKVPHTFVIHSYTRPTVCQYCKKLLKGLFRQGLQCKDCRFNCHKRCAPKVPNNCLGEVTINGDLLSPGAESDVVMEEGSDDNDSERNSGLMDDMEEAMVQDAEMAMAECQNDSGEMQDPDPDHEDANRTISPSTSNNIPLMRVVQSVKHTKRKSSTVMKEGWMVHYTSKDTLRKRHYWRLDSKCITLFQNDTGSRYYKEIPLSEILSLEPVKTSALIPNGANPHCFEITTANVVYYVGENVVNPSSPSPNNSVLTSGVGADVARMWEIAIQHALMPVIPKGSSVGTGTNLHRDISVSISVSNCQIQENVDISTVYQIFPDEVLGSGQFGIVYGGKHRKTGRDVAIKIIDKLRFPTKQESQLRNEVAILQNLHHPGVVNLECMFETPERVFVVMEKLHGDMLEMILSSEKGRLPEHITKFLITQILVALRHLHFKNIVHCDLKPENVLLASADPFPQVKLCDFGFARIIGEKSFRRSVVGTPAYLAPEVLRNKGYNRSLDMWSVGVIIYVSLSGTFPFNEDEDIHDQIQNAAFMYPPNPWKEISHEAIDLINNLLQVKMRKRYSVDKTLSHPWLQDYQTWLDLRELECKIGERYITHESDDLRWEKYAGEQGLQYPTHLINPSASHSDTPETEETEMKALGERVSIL

ZAP70 = molecular target: T3, ZAP70 (Homo sapiens, UniProt P43403); details: read-out: Remaining protein kinase activity
T3 sequence (P43403 1-619): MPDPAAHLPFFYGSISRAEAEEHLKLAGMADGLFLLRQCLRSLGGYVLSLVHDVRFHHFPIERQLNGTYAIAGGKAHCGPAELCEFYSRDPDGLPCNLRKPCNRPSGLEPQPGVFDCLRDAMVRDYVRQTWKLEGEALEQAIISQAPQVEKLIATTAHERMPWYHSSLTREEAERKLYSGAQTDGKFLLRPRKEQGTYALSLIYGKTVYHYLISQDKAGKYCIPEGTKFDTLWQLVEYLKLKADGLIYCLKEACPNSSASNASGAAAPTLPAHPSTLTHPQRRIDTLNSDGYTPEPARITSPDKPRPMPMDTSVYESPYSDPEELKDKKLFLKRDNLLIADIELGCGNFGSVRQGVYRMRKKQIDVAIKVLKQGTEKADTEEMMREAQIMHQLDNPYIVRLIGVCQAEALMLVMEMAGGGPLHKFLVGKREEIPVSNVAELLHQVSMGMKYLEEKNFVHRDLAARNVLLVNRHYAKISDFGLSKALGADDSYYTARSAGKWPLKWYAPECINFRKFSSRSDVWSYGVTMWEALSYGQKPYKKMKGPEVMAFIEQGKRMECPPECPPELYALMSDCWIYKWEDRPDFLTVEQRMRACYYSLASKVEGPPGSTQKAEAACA

Chain of DAPK1 (P53355 whole entry): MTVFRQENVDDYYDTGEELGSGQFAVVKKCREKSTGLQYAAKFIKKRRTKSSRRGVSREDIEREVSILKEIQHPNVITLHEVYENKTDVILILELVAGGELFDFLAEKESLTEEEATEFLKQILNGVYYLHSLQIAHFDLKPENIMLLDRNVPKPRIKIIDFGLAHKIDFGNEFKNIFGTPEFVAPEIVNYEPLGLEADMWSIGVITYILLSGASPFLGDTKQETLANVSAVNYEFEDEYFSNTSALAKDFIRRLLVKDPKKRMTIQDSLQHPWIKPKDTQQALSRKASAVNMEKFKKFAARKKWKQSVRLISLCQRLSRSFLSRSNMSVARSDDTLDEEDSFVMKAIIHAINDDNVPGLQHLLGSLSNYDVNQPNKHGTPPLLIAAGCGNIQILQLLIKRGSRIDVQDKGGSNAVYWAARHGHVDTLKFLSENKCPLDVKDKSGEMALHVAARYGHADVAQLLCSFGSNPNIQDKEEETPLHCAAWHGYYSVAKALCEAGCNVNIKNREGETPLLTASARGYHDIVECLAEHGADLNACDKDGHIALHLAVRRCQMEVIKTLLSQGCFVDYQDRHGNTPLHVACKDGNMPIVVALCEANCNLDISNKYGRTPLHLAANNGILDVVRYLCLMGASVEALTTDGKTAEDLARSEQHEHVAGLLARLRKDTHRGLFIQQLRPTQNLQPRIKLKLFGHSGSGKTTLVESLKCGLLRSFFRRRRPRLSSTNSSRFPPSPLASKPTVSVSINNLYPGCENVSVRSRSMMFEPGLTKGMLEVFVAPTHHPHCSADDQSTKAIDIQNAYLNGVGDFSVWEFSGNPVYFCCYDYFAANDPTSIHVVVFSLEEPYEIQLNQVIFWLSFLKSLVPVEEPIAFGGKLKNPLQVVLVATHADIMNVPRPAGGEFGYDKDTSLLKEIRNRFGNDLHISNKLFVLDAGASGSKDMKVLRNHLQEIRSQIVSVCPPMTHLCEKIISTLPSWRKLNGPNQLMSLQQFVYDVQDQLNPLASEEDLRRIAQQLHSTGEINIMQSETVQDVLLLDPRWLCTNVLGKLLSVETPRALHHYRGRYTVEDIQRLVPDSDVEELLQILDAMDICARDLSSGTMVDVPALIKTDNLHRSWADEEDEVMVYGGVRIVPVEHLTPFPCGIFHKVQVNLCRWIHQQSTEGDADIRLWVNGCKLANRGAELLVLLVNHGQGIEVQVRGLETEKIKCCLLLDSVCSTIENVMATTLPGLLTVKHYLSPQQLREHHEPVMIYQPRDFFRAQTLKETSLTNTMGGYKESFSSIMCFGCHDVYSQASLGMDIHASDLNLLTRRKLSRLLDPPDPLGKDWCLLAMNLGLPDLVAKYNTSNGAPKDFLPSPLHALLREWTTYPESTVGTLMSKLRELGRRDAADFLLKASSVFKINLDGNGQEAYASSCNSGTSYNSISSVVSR

SMILES | remaining activity at 1 µM (DAPK1) [%] | remaining activity at 100 µM (DAPK1) [%] | Remaining protein kinase activity (NUAK1; 1 μM) [%] | remaining activity at 1 µM (PKD1) [%] | remaining activity at 100 µM (PKD1) [%] | remaining activity at 1 µM (ZAP70) [%] | remaining activity at 100 µM (ZAP70) [%] | remaining activity at 1 µM (DAPK1; DAPK1, 1 μM) [%] | remaining activity at 100 µM (DAPK1; DAPK1, 100 μM) [%] | Remaining protein kinase activity (NUAK1; 100 μM) [%] | remaining activity at 1 µM (PKD1; PKD1, 1 μM) [%] | remaining activity at 100 µM (PKD1; PKD1, 100 μM) [%] | remaining activity at 1 µM (ZAP70; ZAP70, 1 μM) [%] | remaining activity at 100 µM (ZAP70; ZAP70, 100 μM) [%]
COc1ccc2sc(-c3cncc(NC(C)=O)c3)nc2c1 [PST-001, N-(5-(5-Methoxybenzo[d]thiazol-2-yl)pyridin-3-yl)acetamide] | 114 | 101 | 130 | 103 | 92 | 123 | 131 | – | – | – | – | – | – | –
COc1ccc2sc(-c3cncc(N)c3)nc2c1 [compound 1, 5-(5-Methoxybenzo[d]thiazol-2-yl)pyridin-3-amine] | – | – | 112 | – | – | – | – | 103 | 58 | 35 | 94 | 23 | 119 | 63
